Experimental data: patent US4696925A, “Cholecystokinin antagonist compounds” (Merck & Co., Inc., priority 1985, dated 1987)

Target: T1, Pancreatic CCK (Rattus norvegicus, UniProt P30551)
T1 construct: from tissue; host or cells: pancreas (rat, inferred from the cited method)
T1 sequence (P30551 1-444): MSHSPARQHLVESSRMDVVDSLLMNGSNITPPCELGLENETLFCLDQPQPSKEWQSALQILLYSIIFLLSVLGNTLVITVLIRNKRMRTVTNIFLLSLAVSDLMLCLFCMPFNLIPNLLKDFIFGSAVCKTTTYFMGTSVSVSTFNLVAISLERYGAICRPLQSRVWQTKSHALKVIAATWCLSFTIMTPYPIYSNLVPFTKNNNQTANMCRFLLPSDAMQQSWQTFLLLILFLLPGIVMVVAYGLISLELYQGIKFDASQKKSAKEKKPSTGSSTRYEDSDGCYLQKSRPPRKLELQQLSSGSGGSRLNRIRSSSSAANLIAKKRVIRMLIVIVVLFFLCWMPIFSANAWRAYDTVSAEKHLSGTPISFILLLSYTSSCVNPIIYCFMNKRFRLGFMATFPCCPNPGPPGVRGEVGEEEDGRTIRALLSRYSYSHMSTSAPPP
Assay: Pancreatic CCK inhibition (assay of European Patent Application No. 0,116,150)
Assay type: binding
Text: The following formula and tabulation further identify the above listed compounds. Pancreatic CCK inhibition data is also provided; the assay used is that disclosed in said European Patent Application No. 0,116,150.
The following table contains information Identifying other compounds of the present invention and pancrease CCK inhibition data (European Patent Application Assay).

[1] = pancreas CCK inhibition, European Patent Application assay, leucine analogs
[2] = pancreatic CCK inhibition, assay of EP 0,116,150

| SMILES | IC50 [1] [µM] | IC50 [2] [µM] |
| --- | --- | --- |
| O=C1NC(CC2(O)c3ccccc3N3C(=O)C(c4ccccc4)NC32)c2nc3ccccc3c(=O)n2-c2ccccc21 (stereo not drawn) [Compound 500] | 20 |  |
| O=C1NC(Cc2c[nH]c3ncccc23)c2nc3ccccc3c(=O)n2-c2ccccc21 (stereo not drawn) [Compound 841] |  | 29.9 |
| CC(CC1NC2N(C1=O)c1ccccc1C2(O)CC1NC(=O)c2ccccc2-n2c1nc1ccccc1c2=O)C(F)(F)F (stereo not drawn) [Compound 328] | 1 |  |
| O=C1c2ccccc2-n2c(nc3ccccc3c2=O)C2CC3(O)c4cc(F)ccc4NC3N12 (stereo not drawn) [Compound 856] |  | 30 |
| CCSCCC1NC2N(C1=O)c1ccccc1C2(O)CC1NC(=O)c2ccccc2-n2c1nc1ccccc1c2=O (stereo not drawn) [Compound 721] | 1.5 |  |
| CC(C)C[C@@H]1NC2N(C1=O)c1ccccc1C2(O)C[C@@H]1NC(=O)c2ccc(F)cc2-n2c1nc1ccccc1c2=O (stereo partly drawn) [Compound 845] |  | 1.45 |
| O=C1c2cc(F)ccc2-n2c(nc3ccc(F)cc3c2=O)C2CC3(O)c4cc(F)ccc4NC3N12 (stereo not drawn) [Compound 857] |  | 2.52 |

More lines, main results first:

| IC50 [1] [µM] | SMILES | IC50 [2] [µM] |
| --- | --- | --- |
| 11.9 | CCCC1NC2N(C1=O)c1ccccc1C2(O)CC1NC(=O)c2ccccc2-n2c1nc1ccccc1c2=O (stereo not drawn) [Compound 539] |  |
| 5.9 | CCC(C)C1NC2N(C1=O)c1ccccc1C2(O)CC1NC(=O)c2ccccc2-n2c1nc1ccccc1c2=O (stereo not drawn) [Compound 654] |  |
| 2.2 | O=C1NC(CC2(O)c3ccccc3N3C(=O)C(C4CCCC4)NC32)c2nc3ccccc3c(=O)n2-c2ccccc21 (stereo not drawn) [Compound 931] |  |
| 4.1 | CSCCC1NC2N(C1=O)c1ccccc1C2(O)CC1NC(=O)c2ccccc2-n2c1nc1ccccc1c2=O (stereo not drawn) [Compound 655] |  |
| 7.6 | C=CCC1NC2N(C1=O)c1ccccc1C2(O)CC1NC(=O)c2ccccc2-n2c1nc1ccccc1c2=O (stereo not drawn) [Compound 540] |  |
| 2.5 | CCCCC1NC2N(C1=O)c1ccccc1C2(O)CC1NC(=O)c2ccccc2-n2c1nc1ccccc1c2=O (stereo not drawn) [Compound 656] |  |
| 3.3 | C=C(C)CC1NC2N(C1=O)c1ccccc1C2(O)CC1NC(=O)c2ccccc2-n2c1nc1ccccc1c2=O (stereo not drawn) [Compound 538] |  |
| 0.6 | O=C1NC(CC2(O)c3ccccc3N3C(=O)C(C4CCCCC4)NC32)c2nc3ccccc3c(=O)n2-c2ccccc21 (stereo not drawn) [Compound 068] |  |
